This is an account of results in patent publication US20230165276A1, “NOVEL USE OF SUBSTITUTED 2H-CHROMENS AND THEIR DERIVATIVES” (DSM IP ASSETS B.V., priority 2018, published 2023).

Series [1] can be described thus: Oxipres antioxidant efficacy value (EV) in poultry meal. As to conditions: 70° C., 5 bar oxygen, 130 hours, equimolar to BHT, EV relative to BHT (EV=1). The protocol:
(§1) Oxidative stability was assessed using an Oxipres (Mikrolab Aarhus A/S, Hojbjerg, Denmark). The ML OXIPRES® is designed to monitor the oxidation of heterogeneous products. Consumption of oxygen results in a pressure drop which is measured by means of pressure transducers. The samples are heated to accelerate the process and shorten the analysis time (Mikrolab Aarhus 2012).
(§2) Sample weights were 50 g. They were loaded into the Oxipres vessels and placed inside the stainless-steel pressure vessel and sealed. The pressure vessels were purged with pure oxygen and filled to an initial oxygen pressure of 5 bar and maintained at 70° C. during measurement (D. Ying, L. Edin, L. Cheng, L. Sanguansri, M. A. Augustin, LWT-Food Science and Technology 2015, 62, 1105-1111: “Enhanced oxidative stability of extruded product containing polyunsaturated oils.”).
(§3) The oxygen pressure was recorded as function of time. After sample load and temperature rise the pressure in the device is increasing within 10 hours. Thereafter it is decreasing. Consequently, the starting pressure is considered to be the pressure after 10 hours. The analysis ends after 130 hours at 70° C. The oxygen consumption ‘02’ of the tested sample is calculated as follows: […]
(§4) A factor of protection called ‘EV’ (Efficacy Value) was developed to quantify with a relative number (relative to BHT) the antioxidant effect of the tested candidates. EV was calculated as follows:
(§5) EV, being relative to BHT (3,5-di-tert-butyl-4-hydroxy-toluene) (EV=1), makes it possible to compare the antioxidant compounds in a defined feed application.
(§6) Compounds of formulae (1) to (7) were mixed each into the matrix 1, 2 or 3 (pet food, poultry meal, fish meal) in an equimolar ratio compared to BHT. Batches of 200 g feed were produced in order to handle a minimum of 30 mg of antioxidant. First, a 1% pre-dilution of the antioxidant with the feed material was made. Then this pre-dilution was added to the final batch, mixed, sieved (1.25 mm sieve) and mixed using a turbula® mixer. Thereafter 55 g of the final batch were packed into polyethylene bags and stored at 4° C. till time of Oxipres assay. Spare sample were stored at 4° C. An efficacy value 0.7 has been considered as acceptable, an efficacy value the efficacy value of alpha-tocopherol as good, and an efficacy value the efficacy value of BHT as very good.

Series [2] can be described thus: Oxipres antioxidant efficacy value (EV) in fish meal. The note with it: 70° C., 5 bar oxygen, 130 hours, equimolar to BHT, EV relative to BHT (EV=1). The method, then:
as §1, §2, §3, §4, §5, §6

Series [3] is described as follows: Oxipres antioxidant efficacy value (EV) in pet food. The note with it: 70° C., 5 bar oxygen, 130 hours, equimolar to BHT, EV relative to BHT (EV=1). The protocol: as §1, §2
The oxygen pressure was recorded as function of time. After sample load and temperature rise the pressure in the device is increasing within 10 hours. Thereafter it is decreasing. Consequently, the starting pressure is considered to be the pressure after 10 hours. […] The oxygen consumption ‘02’ of the tested sample is calculated as follows: […]
A factor of protection called ‘EV’ (Efficacy Value) was developed to quantify with a relative number (relative to BHT) the antioxidant effect of the tested candidates. EV was calculated as follows: […]

The nature of a further series: Solubility in fish oil. Type of series: physicochemical. The protocol:
(§7) Two different levels of compound of formula (1) (0.5 and 2 mg/g) were used in 5 g of natural fish oil (Product Code: FG30TG) and used in the Oxidative Stability Instrument at 80° C. with the air flow rate of 40 psi. The solubility of different amounts and types of antioxidants used in 051 was checked before and after the application. […] Compound of formula (1) was used in the Oxidative Stability instruments under the same conditions used for fish oil evaluations. Also, the synergistic effect of compound of formula (1) with ascorbyl palmitate (AP) was determined using the OSI values. The polymers generated at the end of the experiment were determined by LC.

Series [4] in a line: Oil Stability Index (Oxidative Stability Instrument) in FG30TG fish oil. The method, then:
Compound of formula (1) was evaluated primarily for its oxidative stability by the Oil Stability Index measurements.
as §7

Series [5] is described as follows: Polymers generated at the end of the fish oil stabilization experiment (LC). The note with it: 2 mg/g in FG30TG oil, without AP. The protocol:
as §7
Polymers generated at the end of the stabilization experiment of fish oil with compound of formula (1) and AP are shown in Table 11.
Polymers are combination of complex compounds generated at the end of the oxidation cascade of unsaturated fatty acids and, they indicate the levels of overall oxidation of the matrix. The generation of such polymers in fish oil containing compound of formula (1) could be reduced considerably when AP was added as a synergistic compound (Table 11).

Series [6] in a line: Storage stability study of fish oil (PV, p-AV, CD). The note with it: 2 mg/g in FG30TG. The method, then:
Tables 12, 13 and 14 show the PV (peroxide value), p-AV (p-anisidine value) and CD (conjugated dienoic acid in %) of the fish oil samples stabilized with compound of formula (1). For the storage stability study compound of formula (1) was used in fish oil at only 2 mg/g level. […] MNT had the lowest PV values. There was no considerable variation in p-AV and CD (Tables 13-14) during the storage.

Series [7] is described as follows: Oil Stability Index in crude algal oil. The protocol: as §7
This algal oil already contained about 1.6 mg/g of MNT.

`Cc1cc(C(C)(C)C)c(O)c(C(C)(C)C)c1` [BHT, 3,5-di-tert-butyl-4-hydroxy-toluene, reference compound]: the “EV in poultry meal” value in series [1] is 1. Moreover, the “EV in Fish meal” value in series [2] is reported as 1.
On to `Oc1ccc2c(c1)C=CCO2` [Compound of formula (7), 2H-chromen-6-ol], for which the “EV in Fish meal” value in series [2] came out at 0.72.
In the case of `CC1(C)C=Cc2cc(O)ccc2O1` [Compound of formula (2), 2,2-dimethyl-2H-chromen-6-ol], the “EV in poultry meal” value in series [1] was 1.11.
Consider `Cc1c(C)c2c(c(C)c1O)C=CC(C)(C)O2` [Compound of formula (4), 2,2,5,7,8-pentamethyl-2H-chromen-6-ol], for which the “EV in Fish meal” value in series [2] is recorded as 1.10.
As to `CC1=CC(C)(C)Oc2ccc(O)cc21` [Compound of formula (1), 2,2,4-trimethyl-2H-chromen-6-ol], the “EV in pet food” value in series [3] was 0.97. Besides, in series [1], the “EV in poultry meal” value is given as 1.10. The “EV in Fish meal” value in series [2] is given as 0.94. The “Solubility in fish oil, 80° C.” value in “Solubility in fish oil” (Amount 0.5 mg/g) and in the series “Solubility in fish oil” (Amount 2.0 mg/g) was “Soluble” each time. Besides, the “Solubility in fish oil, Room temp.” value in the series “Solubility in fish oil” (Amount 0.5 mg/g) and in “Solubility in fish oil” (Amount 2.0 mg/g) was “Soluble” throughout. For the same molecule, the “OSI” value in series [4] (Table 7, 0.5 mg/g in FG30TG fish oil, 80° C., air flow 40 psi) is recorded as 5.95 h; in series [4] (Table 7, 2 mg/g in FG30TG fish oil, 80° C., air flow 40 psi) it was 6.73 h; in series [4] (Table 9, 2 mg/g in FG30TG fish oil, without AP) it was 5.70 h; in series [7] (0.5 mg/g added to crude algal oil already containing about 1.6 mg/g of MNT) it was 16.60 h; in series [7] (2 mg/g added to crude algal oil already containing about 1.6 mg/g of MNT), 18.55 h. Also, the “Protection Factor (%)” value stood at 25.26% in series [4] (Table 8, 0.5 mg/g in FG30TG fish oil); 41.58% in series [4] (Table 8, 2 mg/g in FG30TG fish oil); 23.1% in series [4] (Table 10, 2 mg/g in FG30TG fish oil, without AP). In addition, the “Polymers (%)” value in series [5] was determined as 34.67%. The “CD (conjugated dienoic acid in %)” value is on record as 0.8% in series [6] (4 days); 0.8% in series [6] (6 days); 0.9% in series [6] (8 days); 0.9% in series [6] (11 days); 0.8% in series [6] (13 days); 0.8% in series [6] (15 days). The “CD (conjugated dienoic acid in %)” value in series [6] (Initial) was 0.7%. Besides, the “PV (peroxide value)” value in series [6] (4 days) is 2; in series [6] (6 days), 2.6; in series [6] (8 days), 3.8; in series [6] (11 days), 6.8; in series [6] (13 days) it was 9.8; in series [6] (17 days) it was 12.1. The “PV (peroxide value)” value in series [6] (Initial) came to 0.9. In addition, the “p-AV (p-anisidine value)” value in series [6] (4 days) came to 4.4; in series [6] (6 days), 7.2; in series [6] (8 days), 6.8; in series [6] (11 days), 7.6; in series [6] (13 days), 8.1; in series [6] (17 days), 8.5. The “p-AV (p-anisidine value)” value in series [6] (Initial) is given as 9.9.
On to `O=c1ccc2cc(O)ccc2o1` [Compound of formula (6), 6-hydroxycoumarin], for which, in series [2], the “EV in Fish meal” value was determined as 0.75.
On the same count and under the same terms, in the case of `CC1=CC(C)(C)Oc2c(C)c(C)c(O)c(C)c21` [Compound of formula (3), 2,2,4,5,7,8-hexamethyl-2H-chromen-6-ol] it was 0.89.
On the same count and under the same terms, the value for `CCOc1ccc2c(c1)C(C)=CC(C)(C)O2` [Compound of formula (5), 6-ethoxy-2,2,4-trimethyl-2H-chromene] was 0.77.
Regarding `Cc1c(C)c2c(c(C)c1O)CC[C@@](C)(CCC[C@H](C)CCC[C@H](C)CCCC(C)C)O2` [alpha-tocopherol, reference compound], the “EV in pet food” value in series [3] was determined as 0.77. For the same molecule, the “EV in poultry meal” value in series [1] amounted to 0.74. Besides, the “EV in Fish meal” value in series [2] came to 0.88.
